According to ChEMBL document CHEMBL1201862, “PubChem BioAssay data set” (2004):
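96-well plates; 48 h exposure; 5 concentrations. Endpoints by linear interpolation between flanking doses. Not reached: highest tested concentration assigned. Here, GI50 denotes the concentration required for 50% inhibition of growth.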 The source made the active and inactive calls. No stated cut-off is given here; in the data, active = GI50 up to about 1.1 µM and inactive = higher.

How the values were obtained:
Assay in all cases: inhibition of tumour cell growth, NCI panel, 48 h
HT-29 = system: HT-29
MDA-N = system: MDA-N
XF498 = system: XF498
A549 = system: A549
MCF7 = system: MCF7
ACHN = system: ACHN
SF-268 = system: SF-268
DMS-273 = system: DMS-273
KM12 = system: KM12
RPMI-8226 = system: RPMI-8226
LXFL 529 = system: LXFL 529
HCT-15 = system: HCT-15
COLO 205 = system: COLO 205
UACC-62 = system: UACC-62
SK-OV-3 = system: SK-OV-3
A498 = system: A498
OVCAR-5 = system: OVCAR-5
OVCAR-8 = system: OVCAR-8
SW-620 = system: SW-620
SNB-75 = system: SNB-75
SR = system: SR
NCI-H522 = system: NCI-H522
K562 = system: K562
U-251 = system: U-251
M19-MEL = system: M19-MEL
HOP-18 = system: HOP-18
MDA-MB-231 = system: MDA-MB-231
TK-10 = system: TK-10
PC-3 = system: PC-3
KM-20L2 = system: KM-20L2
T47D = system: T47D
Malme-3M = system: Malme-3M
SNB-78 = system: SNB-78
HCT-116 = system: HCT-116
SNB-19 = system: SNB-19
SN12C = system: SN12C
UACC-257 = system: UACC-257
MOLT-4 = system: MOLT-4
EKVX = system: EKVX
HOP-62 = system: HOP-62
NCI-H460 = system: NCI-H460
HL-60 = system: HL-60
SK-MEL-5 = system: SK-MEL-5
SK-MEL-2 = system: SK-MEL-2
LOX IMVI = system: LOX IMVI
M14 = system: M14
OVCAR-3 = system: OVCAR-3
IGROV-1 = system: IGROV-1
SK-MEL-28 = system: SK-MEL-28
DU-145 = system: DU-145
RXF 393 = system: RXF 393
SF-539 = system: SF-539
786-0 = system: 786-0
DLD-1 = system: DLD-1
BT-549 = system: BT-549
CCRF-CEM = system: CCRF-CEM
HOP-92 = system: HOP-92
DMS-114 = system: DMS-114
UO-31 = system: UO-31
NCI-H226 = system: NCI-H226
OVCAR-4 = system: OVCAR-4
HCC 2998 = system: HCC 2998
SF-295 = system: SF-295
NCI-H23 = system: NCI-H23
CAKI-1 = system: CAKI-1

How did the GI50 (HT-29) turn out when Cc1ccccc1Nc1nc2c(s1)C(=O)c1ccccc1C2=O was run?
The GI50 was 19.1 µM (inactive).

What about the GI50 (MDA-N) of the same compound?
The GI50 was 1.95 µM (inactive).

What about the GI50 (XF498) of the same compound?
Its GI50 is 15.6 µM (inactive).

What about the GI50 (A549) of the same compound?
Its GI50 is 10.2 µM (inactive).

What about the GI50 (MCF7) of the same compound?
The GI50 was 2 µM (inactive).

And the GI50 (ACHN)?
The GI50 was 4.95 µM (inactive).

What about the GI50 (SF-268) of the same compound?
Its GI50 is 4.33 µM (inactive).

What about the GI50 (DMS-273) of the same compound?
Its GI50 is 8.07 µM (inactive).

And the GI50 (KM12)?
Its GI50 is 9.38 µM (inactive).

What about the GI50 (RPMI-8226) of the same compound?
Its GI50 is 2.93 µM (inactive).

And the GI50 (LXFL 529)?
Its GI50 is 4.61 µM (inactive).

What about the GI50 (HCT-15) of the same compound?
Its GI50 is 3.78 µM.

What about the GI50 (COLO 205) of the same compound?
Its GI50 is 16.8 µM (inactive).

What about the GI50 (UACC-62) of the same compound?
Its GI50 is 4.55 µM (inactive).

And the GI50 (SK-OV-3)?
The GI50 was 21.8 µM (inactive).

What about the GI50 (A498) of the same compound?
The GI50 was 22.4 µM (inactive).

What about the GI50 (OVCAR-5) of the same compound?
Its GI50 is 21.5 µM (inactive).

What about the GI50 (OVCAR-8) of the same compound?
Its GI50 is 2.86 µM (inactive).

What about the GI50 (SW-620) of the same compound?
The GI50 was 2.49 µM (inactive).

What about the GI50 (SNB-75) of the same compound?
Its GI50 is 15.3 µM (inactive).

What about the GI50 (SR) of the same compound?
The GI50 was 3.27 µM (inactive).

And the GI50 (NCI-H522)?
The GI50 was 2.86 µM (inactive).

And the GI50 (K562)?
The GI50 was 3.07 µM (inactive).

And the GI50 (U-251)?
Its GI50 is 4.09 µM (inactive).

What about the GI50 (M19-MEL) of the same compound?
Its GI50 is 1.95 µM (inactive).

What about the GI50 (HOP-18) of the same compound?
Its GI50 is 12.4 µM (inactive).

And the GI50 (MDA-MB-231)?
Its GI50 is 3.41 µM (inactive).

What about the GI50 (TK-10) of the same compound?
Its GI50 is 22.7 µM (inactive).

What about the GI50 (PC-3) of the same compound?
The GI50 was 2.26 µM (inactive).

What about the GI50 (KM-20L2) of the same compound?
The GI50 was 28.6 µM (inactive).

What about the GI50 (T47D) of the same compound?
The GI50 was 4.53 µM (inactive).

What about the GI50 (Malme-3M) of the same compound?
Its GI50 is 15 µM (inactive).

What about the GI50 (SNB-78) of the same compound?
The GI50 was 12.8 µM (inactive).

And the GI50 (HCT-116)?
Its GI50 is 2.36 µM (inactive).

What about the GI50 (SNB-19) of the same compound?
The GI50 was 7.21 µM (inactive).

What about the GI50 (SN12C) of the same compound?
The GI50 was 3.3 µM (inactive).

And the GI50 (UACC-257)?
The GI50 was 5.5 µM (inactive).

And the GI50 (MOLT-4)?
Its GI50 is 2.43 µM (inactive).

And the GI50 (EKVX)?
The GI50 was 13.3 µM (inactive).

And the GI50 (HOP-62)?
Its GI50 is 16.4 µM (inactive).

What about the GI50 (NCI-H460) of the same compound?
Its GI50 is 8.67 µM (inactive).

What about the GI50 (HL-60) of the same compound?
The GI50 was 2.31 µM (inactive).

What about the GI50 (SK-MEL-5) of the same compound?
The GI50 was 2.92 µM (inactive).

What about the GI50 (SK-MEL-2) of the same compound?
Its GI50 is 16.7 µM (inactive).

And the GI50 (LOX IMVI)?
The GI50 was 2.26 µM (inactive).

And the GI50 (M14)?
The GI50 was 5.82 µM (inactive).

And the GI50 (OVCAR-3)?
Its GI50 is 2.24 µM (inactive).

What about the GI50 (IGROV-1) of the same compound?
Its GI50 is 9.55 µM (inactive).

What about the GI50 (SK-MEL-28) of the same compound?
Its GI50 is 9.86 µM (inactive).

What about the GI50 (DU-145) of the same compound?
Its GI50 is 6.67 µM (inactive).

And the GI50 (RXF 393)?
Its GI50 is 8.87 µM (inactive).

What about the GI50 (SF-539) of the same compound?
Its GI50 is 5.73 µM (inactive).

And the GI50 (786-0)?
Its GI50 is 2.95 µM (inactive).

And the GI50 (DLD-1)?
The GI50 was 5.73 µM (inactive).

And the GI50 (BT-549)?
The GI50 was 2.46 µM (inactive).

And the GI50 (CCRF-CEM)?
The GI50 was 3.34 µM (inactive).

What about the GI50 (HOP-92) of the same compound?
Its GI50 is 11.9 µM (inactive).

What about the GI50 (DMS-114) of the same compound?
The GI50 was 2 µM (inactive).

What about the GI50 (UO-31) of the same compound?
The GI50 was 5.07 µM (inactive).

And the GI50 (NCI-H226)?
The GI50 was 14.4 µM (inactive).

And the GI50 (OVCAR-4)?
Its GI50 is 2.02 µM (inactive).

And the GI50 (HCC 2998)?
Its GI50 is 17.7 µM (inactive).

What about the GI50 (SF-295) of the same compound?
The GI50 was 18 µM (inactive).

And the GI50 (NCI-H23)?
The GI50 was 3.43 µM (inactive).

What about the GI50 (CAKI-1) of the same compound?
The GI50 was 16.5 µM (inactive).
